# Experimental data from patent US9109041B2, “Analog compounds of analgesic peptides derived from the venom of crotalus durissus terrificus snakes, their uses, compositions, methods of preparation and purification” (priority 2004, dated 2015).
# Test system: hyperalgesia induced by chronic constriction of the sciatic nerve
# Assay: hyperalgesia induced by chronic constriction of the sciatic nerve (rat paw pressure test)
# Assay type: in vivo
# Details: for pain threshold, BM: before surgery; for pain threshold, FM 3 h: day 14, 3 h after peptide; for pain threshold, FM 24 h: day 14, 24 h after peptide; for pain threshold, FM 48 h: day 14, 48 h after peptide; for pain threshold, FM 72 h: day 14, 72 h after peptide; for pain threshold, FM 96 h: day 14, 96 h after peptide; for pain threshold, MF 3 h: 3 h after peptide
# Procedure: For the induction of neuropathic pain, surgery was performed in the sciatic nerve, in accordance with the method described by Bennett, G. J and Xie, Y. K. (Pain, 33:87-107, 1988). The animals were anesthetized with halothane. The sciatic nerve was exposed in the middle region of the thigh, moving away the femoral biceps muscle. Close to the trifurcation of the sciatic nerve, 7 mm of distance from the trifurcation, 4 loose ligations were performed (chromed catgut 4-0) around it, distant from each other in approximately 1 mm. The bindings were performed along the nerve, up to 4-5 mm from the initial point. The incision was sutured in layers, using silk suture thread number 4-0.
# The test was applied before (BM-basal measurement) and on the 14th day after the surgery, to characterize the development of neuropathic pain.
# The results were analyzed by comparing the means of the basal and initial measurements or by comparing the means of the initial and final measurements or, when determined, through the comparison of the means obtained in the different experimental groups.
# For this purpose, the animals were treated with CTOP, a specific μ receptor antagonist (20 μg/paw), nor-BNI, a specific κ receptor antagonist (50 μg/paw) or with ICI 174,864, a specific δ receptor antagonist (10 μg/paw). The antagonists were injected, by intraplantar route. The peptide was administered in the dose of 5 μg/kg, orally, immediately before the injection of the opioid antagonists.
# The results were analyzed comparing the mean values of the basal and initial measurements, or of the initial and final measurements or, when determined, by comparing the mean values obtained in the different experimental groups (Tables 15 and 16).
# [1] = 5 μg/kg p.o. + CTOP 20 μg/paw i.pl.
# [2] = 5 μg/kg p.o. + ICI 174,864 10 μg/paw i.pl.
# [3] = 5 μg/kg p.o. + nor-BNI 50 μg/paw i.pl.
substance,measurement,setting,value
Xaa-Phe-Ser-Pro-Glu-Asn-Cys-Gln-Gly-Glu-Ser-Gln-Pro-Cys [SEQ ID NO: 2],"pain threshold, BM",0.0016 μg/kg p.o.,72 ± 1.22 g
same,"pain threshold, FM 1 h","0.0016 μg/kg p.o., day 14, 1 h after peptide",32 ± 1.22 g
same,"pain threshold, FM 3 h",0.0016 μg/kg p.o.,32 ± 1.22 g
same,"pain threshold, FM 24 h",0.0016 μg/kg p.o.,33 ± 1.22 g
same,"pain threshold, FM 48 h",0.0016 μg/kg p.o.,30 ± 0.00 g
same,"pain threshold, FM 72 h",0.0016 μg/kg p.o.,32 ± 1.22 g
same,"pain threshold, FM 96 h",0.0016 μg/kg p.o.,32 ± 1.22 g
same,"pain threshold, IM","0.0016 μg/kg p.o., day 14 after surgery, before peptide",33 ± 1.22 g
same,"pain threshold, BM",0.008 μg/kg p.o.,74 ± 1.87 g
same,"pain threshold, FM 1 h","0.008 μg/kg p.o., day 14, 1 h after peptide",34 ± 1.00 g
same,"pain threshold, FM 3 h",0.008 μg/kg p.o.,30 ± 1.58 g
same,"pain threshold, FM 24 h",0.008 μg/kg p.o.,30 ± 0.00 g
same,"pain threshold, FM 48 h",0.008 μg/kg p.o.,33 ± 1.22 g
same,"pain threshold, FM 72 h",0.008 μg/kg p.o.,31 ± 1.00 g
same,"pain threshold, FM 96 h",0.008 μg/kg p.o.,32 ± 1.22 g
same,"pain threshold, IM","0.008 μg/kg p.o., day 14 after surgery, before peptide",33 ± 1.22 g
same,"pain threshold, BM",0.04 μg/kg p.o.,71 ± 1.00 g
same,"pain threshold, FM 1 h","0.04 μg/kg p.o., day 14, 1 h after peptide",29 ± 1.00 g
same,"pain threshold, FM 3 h",0.04 μg/kg p.o.,30 ± 0.00 g
same,"pain threshold, FM 24 h",0.04 μg/kg p.o.,31 ± 1.00 g
same,"pain threshold, FM 48 h",0.04 μg/kg p.o.,33 ± 1.22 g
same,"pain threshold, FM 72 h",0.04 μg/kg p.o.,33 ± 0.00 g
same,"pain threshold, FM 96 h",0.04 μg/kg p.o.,33 ± 1.22 g
same,"pain threshold, IM","0.04 μg/kg p.o., day 14 after surgery, before peptide",33 ± 1.22 g
same,"pain threshold, BM",0.2 μg/kg p.o.,73 ± 1.22 g
same,"pain threshold, FM 1 h","0.2 μg/kg p.o., day 14, 1 h after peptide",51 ± 1.87 g
same,"pain threshold, FM 3 h",0.2 μg/kg p.o.,56 ± 1.87 g
same,"pain threshold, FM 24 h",0.2 μg/kg p.o.,52 ± 1.22 g
same,"pain threshold, FM 48 h",0.2 μg/kg p.o.,54 ± 1.00 g
same,"pain threshold, FM 72 h",0.2 μg/kg p.o.,53 ± 1.22 g
same,"pain threshold, FM 96 h",0.2 μg/kg p.o.,33 ± 1.22 g
same,"pain threshold, IM","0.2 μg/kg p.o., day 14 after surgery, before peptide",31 ± 1.00 g
same,"pain threshold, BM",1 μg/kg p.o.,72 ± 1.22 g
same,"pain threshold, FM 1 h","1 μg/kg p.o., day 14, 1 h after peptide",73 ± 1.22 g
same,"pain threshold, FM 3 h",1 μg/kg p.o.,73 ± 1.22 g
same,"pain threshold, FM 24 h",1 μg/kg p.o.,71 ± 1.00 g
same,"pain threshold, FM 48 h",1 μg/kg p.o.,74 ± 1.00 g
same,"pain threshold, FM 72 h",1 μg/kg p.o.,71 ± 1.00 g
same,"pain threshold, FM 96 h",1 μg/kg p.o.,33 ± 1.22 g
same,"pain threshold, IM","1 μg/kg p.o., day 14 after surgery, before peptide",31 ± 1.00 g
same,"pain threshold, FM 1 h","5 μg/kg p.o. + CTOP 20 μg/paw i.pl., 1 h after peptide",105 ± 4.18 g
same,"pain threshold, MF 3 h",[1],112 ± 5.83 g
same,"pain threshold, BM",[1],72 ± 1.22 g
same,"pain threshold, IM","5 μg/kg p.o. + CTOP 20 μg/paw i.pl., day 14, before peptide",41 ± 1.88 g
same,"pain threshold, FM 1 h","5 μg/kg p.o. + ICI 174,864 10 μg/paw i.pl., 1 h after peptide",35 ± 1.87 g
same,"pain threshold, MF 3 h",[2],37 ± 2.55 g
same,"pain threshold, BM",[2],72 ± 1.22 g
same,"pain threshold, IM","5 μg/kg p.o. + ICI 174,864 10 μg/paw i.pl., day 14, before peptide",34 ± 1.87 g
same,"pain threshold, FM 1 h","5 μg/kg p.o. + nor-BNI 50 μg/paw i.pl., 1 h after peptide",69 ± 1.87 g
same,"pain threshold, MF 3 h",[3],75 ± 1.58 g
same,"pain threshold, BM",[3],73 ± 1.22 g
